Data set [1] is described as follows: Rat pharmacokinetics of OA and OC in plasma and urine after oral OA alone or with CMF1. The format is in vivo, Sprague-Dawley rats. The settings on record: in vivo, po, 30 mg/kg. As for the experimental part:
The study was approved by the Animal Ethics Committee of The Chinese University of Hong Kong. Male Sprague-Dawley rats (230–250 g) were utilized and supplied by the Laboratory Animal Service Center at The Chinese University of Hong Kong. The rats were housed under standard conditions of temperature, humidity, and light and randomly divided into six groups with 10–12 rats in each group. […] The dose of 1.95 g/kg CMF1 is calculated based on the human dose recommended by the Chinese physicians and a doubled dose of CMF1 at […] is also used in the current study due to the potential large dosing range for Chinese medicine adopted in the practice. […]
For dosing, OA (4 mg/mL) was freshly prepared by dissolving it in water and orally given to rats by gavage, bid (twice daily) for 4 days (9:00am and 6:00pm for each day), and CMF1 was also freshly suspended in water and then orally given to rats 2 h later of OA dosing (11:00 am and 8:00 pm for each day).
For Groups of 1 to 3, a surgery for jugular vein cannulation was performed 1 h after CMF1 second dosing on day 4. A polyethylene catheter (0.50 mm ID, 1.00 mm OD, Portex Limited, Hythe, Kent, England) was cannulated into the right jugular vein under anesthesia. After surgery, the rat was placed in separated metabolic cage and allowed to recover and fasted overnight with free access to water. In the morning of day 5, blood samples (0.2 mL each) of the rats in the Groups 1–3 were collected via the catheter at 0, 15, 30, 60, 90, 120, 180, 240, 360, and 480 min after dosing of OA. After which, 0.2 mL of normal saline containing 20 units/mL of heparin was then injected into the catheter to flush the catheter. The collected blood samples were immediately placed in heparinized tubes containing dichlorvos (5 μL of 8 mg/mL dichlorvos in normal saline) for inhibition of carboxylesterase, followed by centrifugation to obtain the plasma and stored at −80°C. Urine samples were collected over 8 h postdose and combined with water used for rinsing the metabolic cage, further diluted to 200 mL, and then stored at −80°C until assay.
The rat/human plasma and urine samples were treated and analyzed by an LC/MS/MS system as previously described. Briefly, 200 μL plasma/urine samples was mixed with cephalexin hydrate (internal standard, IS) working solution (final 2 μg/mL) and acidified with 1 mL of 10% perchloric acid in water (if necessary, dilution with blank human urine was required for urine samples). After mixing and centrifugation, the supernatant was loaded in prewashed Oasis MCX cartridge (1 cc, 30 mg, Waters) and the cartridge was rinsed subsequently with 1% formic acid, water, and methanol followed by vacuum dried for 20 min. The analytes were then eluted with 1 mL of 1% ammonia in methanol. The eluting solvent was dried by a vacuum concentrator and the residue was reconstituted with 200 μL of 0.1% formic acid : methanol (1 : 1 v/v) prior to HPLC/MS/MS analysis using an ABI 2000 Q-Trap triple quadrupole mass spectrometer (Applied Biosystems) coupled with PE-200 series micropumps and autosampler (Perkin-Elmer). The chromatographic separation was achieved by using a Nova-Pak CN HP column (75 × 3.9 mm i.d., 4 μm particle size, Waters) and the HPLC solvent system consisted of methanol (A) and 0.1% formic acid in water (B), with 50% A (for plasma samples) or 60% A (for urine samples) at 1 mL/min. The temperatures of autosampler and the analytical column were set at 4°C and ambient, respectively, and the sample injection volume was 20 μL. Prior to the mass spectrometric system, 60% of the LC eluent was split off and only 40% of the eluent was introduced into the ESI source.
The plasma/urine OA and OC concentrations versus time profiles were analyzed using WinNonlin software standard edition version 2.1 (Pharsight Corporation). […] In human study, trough concentration (C trough) was defined as the minimum concentration obtained and was obtained at 12 h post-dose. […]

Data set [2] is described as follows: Human crossover pharmacokinetic interaction study of WM (Tamiflu) alone or with CMF1. It counts as in vivo, human (Chinese male healthy volunteers). The settings on record: for AUC(0-t): AUC0–12 h; for Cmax: C max. The procedure: Normal healthy Chinese male subjects aged 20–45 years were recruited in this study. […] The study was conducted using a single-center, randomized, open-labeled, multiple dose (5 days), two-treatment, two-period, two-sequence crossover design. […] Each subject underwent two treatment sessions (periods I and II), and each session consists of 5-day treatment (twice daily for day 1 to day 4, morning dose for day 5). The two treatment sessions were separated by a washout period of 2 weeks. 250 mL water was used for WM (Tamiflu capsule, 75 mg per dose) administration. […] Drinking water was not allowed from 1 h predose to 1 h postdose except that needed for drug dosing. […] All blood and urine collection was taken on day 5 of each treatment session. […] Blood samples were collected from a catheter, which was placed in the forearm vein before dosing. At the specified time, 5 mL of blood was drawn (except for 0 time and at 2 h which was 10 mL each for additional antiviral activity determination) and stored in vacuette lithium heparin tubes (Greiner Bio-One). […] Plasma samples were collected after centrifugation and then stored at −80°C until assay. Urine was also collected (and the volume was recorded) at pre-dose, 0–4, 4–8, and 8–12 h intervals. […] After mixing and centrifugation, the supernatant was loaded in prewashed Oasis MCX cartridge (1 cc, 30 mg, Waters) and the cartridge was rinsed subsequently with 1% formic acid, water, and methanol followed by vacuum dried for 20 min. The analytes were then eluted with 1 mL of 1% ammonia in methanol. The eluting solvent was dried by a vacuum concentrator and the residue was reconstituted with 200 μL of 0.1% formic acid : methanol (1 : 1 v/v) prior to HPLC/MS/MS analysis using an ABI 2000 Q-Trap triple quadrupole mass spectrometer (Applied Biosystems) coupled with PE-200 series micropumps and autosampler (Perkin-Elmer). […] In human study, trough concentration (C trough) was defined as the minimum concentration obtained and was obtained at 12 h post-dose. […] In human studies, the comparison of WM + CMF1 to WM alone treatments was evaluated using a 90% confidence intervals (90% CI) approach (USFDA guideline, Drug Interactions Studies, September 2006). […] The statistical model included terms describing the effects attributable to sequence, subject (nested in sequence), period, and treatment (formulation). […] Difference in the median T max between both treatments was evaluated using Wilcoxon signed-rank test. For comparison of the human antiviral activities, one-way analysis of variance in conjunction with post hoc Turkey's range test was performed.

The mark [3] stands for this setting: male, human, in vivo, geometric mean.

Broadly, the Cmax is the maximum level reached in the sampled fluid or tissue. As a reminder, the CL/F is clearance divided by bioavailability, as obtained after extravascular dosing. Broadly, the Tmax is the time at which the peak concentration occurs. By half-life is commonly meant the time in which the quantity being followed falls by half. As a reminder, the AUC(0-t) is the area under the concentration-time curve up to a stated or last time point. A low value points to less exposure. As to `CCOC(=O)C1=C[C@@H](OC(CC)CC)[C@H](NC(C)=O)[C@@H](N)C1` [OA, Oseltamivir], in data set [1], the “AUC0–8 h” value came out at 199.85 ± 56.88 μg∗min/mL; the “AUC0–inf” value came to 209.14 ± 60.23 μg∗min/mL; the “V d, λz/F” value is 23.39 ± 8.17 (L/k)g. This compound returned a Cmax in data set [1] (male, Sprague-Dawley, C max) of 1160 ± 300 ng/mL. Besides, the CL renal in data set [1] (male, Sprague-Dawley, CL renal) came out at 6.1 ± 1.32 mL/min. This compound also gave a CL/F in data set [1] (male, Sprague-Dawley, CL/F) of 158 ± 59.6 mL/min/kg. For the same compound, in data set [1] (male, Sprague-Dawley, T max), the time of peak concentration (Tmax) was 0.55 h. In data set [1] (male, Sprague-Dawley, t 1/2, λz), this compound had a half-life of 1.72 ± 0.146 h. In data set [2] (human, day 5, WM + CMF1, n = 14, arithmetic mean ± SD), the C max stood at 51.3 ± 17.4 ng/mL. Besides, the tolerability entry in data set [2] (in vivo) is listed as “well tolerated”. Besides, in data set [2] (male, human, in vivo), the “12 h Cum. amt. in urine” value was 2883 ± 985 µg; the “12 h Cum. amt. in urine, geometric mean” value stood at 2745.53 µg; the “C max for WM + CMF1 treatment lower than that from WM alone” value worked out at 21.81%; the “C max when OA was co-administered with CMF1, relative to WM alone” value is given as ~ 78%. Besides, in data set [2] (male, human, in vivo), the “time to reach peak maximum in plasma” value was in the range of 0.5 to 1 h, the AUC(0-t) was found to be 134 ± 41.1 ng·h/mL and the Cmax stood at 67.9 ± 27.1 ng/mL. In data set [2] (setting [3]), the AUC(0-t) is 130 ng·h/mL and the concentration peaked (Cmax) at 62.4 ng/mL. The same compound gave a CL renal in data set [2] (male, human, in vivo, Renal clearance) of 368 mL/min. The half-life in data set [2] (male, human, in vivo, T 1/2 (terminal half-life)) was 1.98 ± 0.4 h. Further, the Tmax in data set [2] (male, human, in vivo, T max) stood at 0.61 ± 0.21 h. In data set [2] (male, human, in vivo, renal clearance), this compound gave a CL renal of about 367 mL/min.

The record behind these values is paper PMC3912631, “Bench to Bed Evidences for Pharmacokinetic and Pharmacodynamic Interactions Involving Oseltamivir and Chinese Medicine” (Evidence-based Complementary and Alternative Medicine : eCAM, 2014).
